≈ marks a conversion by molar mass, not a printed value. Like-named read-outs stand apart in the source and are kept apart here.
Tests used:
C. krusei (ATCC 6258) [1] = details: cited from earlier work
[2] = test system: C. parapsilosis (ATCC 22019); details: cited from earlier work
C. albicans (ATCC 90028) = assay: in vitro micro-dilution susceptibility assay (method of Rojas); type: cell-based; details: for MIC: Candida albicans, read-out: minimum inhibition concentration (MIC)
Description: (§1) The in vitro susceptibility of Malassezia species to roflumilast was determined utilizing three Candida species as internal control isolates for all testing. These three isolates were C. albicans American Type Culture Collection (ATCC) 90028, C. krusei (ATCC 6258) and C. parapsilosis (ATCC 22019). In addition to testing roflumilast all susceptibility assays were conducted using ketoconazole and hydrocortisone as positive and negative control compounds, respectively. All assays were placed within a humidified incubator set to 32° C. for a total of seven days. Each assay was evaluated after 12 hours of incubation and, every 24 hours post incubation for a total of seven days. The assays were evaluated for visual growth of each pathogen in the no treatment control as well as determination of minimum inhibition concentration (MIC) values. The concentration that provides a 3-log10 CFU/mL reduction in fungal burden from baseline at day 0 was defined as the minimum fungicidal concentration (MHC) and was determined by quantifying fungal burdens found in the microplate at day seven.
(§2) The method of Rojas (Rojas F D, et al. Antifungal susceptibility of Malassezia furfur, Malassezia sympodialis, and Malassezia globose to azole drugs and amphotericin B evaluated using a broth microdilution method. 2014. Medical Mycology. 52:641-646) was used in which the liquid broth medium was RPMI 1640 with added 1.8% glucose, 1% peptone, 0.5% ox-bile, 0.5% malt extract, 1% glycerol, 0.5% Tween 40 and 0.05% Tween 80. Round bottom 96 well microplates were used. The inoculums were prepared in sterile saline and diluted to a final targeted concentration of 0.5×10^5 to 2.5×10^5 CFU/mL in supplemented RPMI. […] For the internal control isolate C. parapsilosis (ATCC 22019) the expected CLSI values for ketoconazole of 0.03-0.25 (at 24 hours) and 0.06-0.5 (at 48 hours) did agree with the 2-day value (Table A) of 0.5.

M. furfur (ATCC 14521) = assay: as above; type: cell-based; details: for MIC: Malassezia furfur, read-out: minimum inhibition concentration (MIC)
Description: as §1, §2

[3] = test system: C. parapsilosis (ATCC 22019); assay: as above; type: cell-based; details: C. parapsilosis (22019); for MIC: Lodderomyces parapsilosis, read-out: minimum inhibition concentration (MIC)
Description: as §1, §2

[4] = test system: M. restricta (ATCC MYA-4611); assay: as above; type: cell-based
Description: as §1, §2

[5] = test system: M. globose (ATCC MYA-4889); assay: as above; type: cell-based
Description: as §1, §2

C. krusei (ATCC 6258) [6] = assay: as above; type: cell-based; details: for MIC: Pichia kudriavzevii, read-out: minimum inhibition concentration (MIC)
Description: as §1, §2

M. furfur (ATCC 44344) = assay: as above; type: cell-based; details: for MIC: Malassezia furfur, read-out: minimum inhibition concentration (MIC)
Description: as §1, §2

M. furfur (ATCC 12078) = assay: as above; type: cell-based; details: for MIC: Malassezia furfur, read-out: minimum inhibition concentration (MIC)
Description: as §1, §2

- MIC (C. albicans (ATCC 90028); ATCC90028, 24 h, Time 1 days): 0.06 µg/mL (≈ 0.113 µM)
- MIC (C. albicans (ATCC 90028); ATCC90028, 48 h, Time 2 days): 0.06 µg/mL (≈ 0.113 µM)
- MIC (C. albicans (ATCC 90028); ATCC90028, 72 h, Time 3 days): 0.125 µg/mL (≈ 0.235 µM)
- MIC (C. albicans (ATCC 90028); ATCC90028, 96 h, Time 4 days): 0.25 µg/mL (≈ 0.47 µM)
- MIC (C. albicans (ATCC 90028); ATCC90028, 120 h, Time 5 days): 0.25 µg/mL (≈ 0.47 µM)
- MIC (C. albicans (ATCC 90028); ATCC90028, 144 h, Time 6 days): 0.25 µg/mL (≈ 0.47 µM)
- MIC (C. albicans (ATCC 90028); ATCC90028, 168 h, Time 7 days): 0.25 µg/mL (≈ 0.47 µM)
- minimum inhibition concentration (MIC) (C. albicans (ATCC 90028); Time 0.5 days): NGO
- MIC (M. furfur (ATCC 14521); ATCC14521, 48 h, Time 2 days): 0.03 µg/mL (≈ 0.0565 µM)
- MIC (M. furfur (ATCC 14521); ATCC14521, 72 h, Time 3 days): 0.06 µg/mL (≈ 0.113 µM)
- MIC (M. furfur (ATCC 14521); ATCC14521, 96 h, Time 4 days): 0.06 µg/mL (≈ 0.113 µM)
- MIC (M. furfur (ATCC 14521); ATCC14521, 120 h, Time 5 days): 0.06 µg/mL (≈ 0.113 µM)
- MIC (M. furfur (ATCC 14521); ATCC14521, 144 h, Time 6 days): 0.06 µg/mL (≈ 0.113 µM)
- MIC (M. furfur (ATCC 14521); ATCC14521, 168 h, Time 7 days): 0.25 µg/mL (≈ 0.47 µM)
- minimum inhibition concentration (MIC) (M. furfur (ATCC 14521); Time 0.5 days): NGO
- minimum inhibition concentration (MIC) (M. furfur (ATCC 14521); Time 1 days): NGO
- minimum inhibition concentration (MIC) ([3]; Time 0.5 days): NGO
- MIC ([3]; ATCC22019, 24 h, Time 1 days): 0.5 µg/mL (≈ 0.941 µM)
- MIC ([3]; ATCC22019, 48 h, Time 2 days): 0.5 µg/mL (≈ 0.941 µM)
- MIC ([3]; ATCC22019, 72 h, Time 3 days): 0.5 µg/mL (≈ 0.941 µM)
- MIC ([3]; ATCC22019, 96 h, Time 4 days): 0.5 µg/mL (≈ 0.941 µM)
- MIC ([3]; ATCC22019, 120 h, Time 5 days): 1 µg/mL (≈ 1.88 µM)
- MIC ([3]; ATCC22019, 144 h, Time 6 days): 1 µg/mL (≈ 1.88 µM)
- MIC ([3]; ATCC22019, 168 h, Time 7 days): 2 µg/mL (≈ 3.76 µM)
- minimum inhibition concentration (MIC) ([4]; Time 0.5 days): NGO
- minimum inhibition concentration (MIC) ([4]; Time 1 days): NGO
- minimum inhibition concentration (MIC) ([4]; Time 2 days): NGO
- minimum inhibition concentration (MIC) ([4]; Time 3 days): NGO
- minimum inhibition concentration (MIC) ([4]; Time 4 days): NGO
- minimum inhibition concentration (MIC) ([4]; Time 5 days): NGO
- minimum inhibition concentration (MIC) ([4]; Time 6 days): NGO
- minimum inhibition concentration (MIC) ([4]; Time 7 days): NGO
- minimum inhibition concentration (MIC) ([5]; Time 0.5 days): NGO
- minimum inhibition concentration (MIC) ([5]; Time 1 days): NGO
- minimum inhibition concentration (MIC) ([5]; Time 2 days): NGO
- minimum inhibition concentration (MIC) ([5]; Time 3 days): NGO
- minimum inhibition concentration (MIC) ([5]; Time 4 days): NGO
- minimum inhibition concentration (MIC) ([5]; Time 5 days): NGO
- minimum inhibition concentration (MIC) ([5]; Time 6 days): NGO
- minimum inhibition concentration (MIC) ([5]; Time 7 days): NGO
- MIC (C. krusei (ATCC 6258) [6]; ATCC6258, 24 h, Time 1 days): 4 µg/mL (≈ 7.53 µM)
- MIC (C. krusei (ATCC 6258) [6]; ATCC6258, 48 h, Time 2 days): 8 µg/mL (≈ 15.1 µM)
- MIC (C. krusei (ATCC 6258) [6]; ATCC6258, 72 h, Time 3 days): 16 µg/mL (≈ 30.1 µM)
- MIC (C. krusei (ATCC 6258) [6]; ATCC6258, 96 h, Time 4 days): 16 µg/mL (≈ 30.1 µM)
- MIC (C. krusei (ATCC 6258) [6]; ATCC6258, 120 h, Time 5 days): 16 µg/mL (≈ 30.1 µM)
- MIC (C. krusei (ATCC 6258) [6]; ATCC6258, 144 h, Time 6 days): 32 µg/mL (≈ 60.2 µM)
- MIC (C. krusei (ATCC 6258) [6]; ATCC6258, 168 h, Time 7 days): 32 µg/mL (≈ 60.2 µM)
- minimum inhibition concentration (MIC) (C. krusei (ATCC 6258) [6]; Time 0.5 days): NGO
- MIC (M. furfur (ATCC 44344); ATCC44344, 48 h, Time 2 days): 0.125 µg/mL (≈ 0.235 µM)
- MIC (M. furfur (ATCC 44344); ATCC44344, 72 h, Time 3 days): 0.125 µg/mL (≈ 0.235 µM)
- MIC (M. furfur (ATCC 44344); ATCC44344, 96 h, Time 4 days): 0.125 µg/mL (≈ 0.235 µM)
- MIC (M. furfur (ATCC 44344); ATCC44344, 120 h, Time 5 days): 0.25 µg/mL (≈ 0.47 µM)
- MIC (M. furfur (ATCC 44344); ATCC44344, 144 h, Time 6 days): 0.25 µg/mL (≈ 0.47 µM)
- MIC (M. furfur (ATCC 44344); ATCC44344, 168 h, Time 7 days): 0.125 µg/mL (≈ 0.235 µM)
- minimum inhibition concentration (MIC) (M. furfur (ATCC 44344); Time 0.5 days): NGO
- minimum inhibition concentration (MIC) (M. furfur (ATCC 44344); Time 1 days): NGO
- MIC (M. furfur (ATCC 12078); ATCC12078, 48 h, Time 2 days): 0.06 µg/mL (≈ 0.113 µM)
- MIC (M. furfur (ATCC 12078); ATCC12078, 72 h, Time 3 days): 0.06 µg/mL (≈ 0.113 µM)
- MIC (M. furfur (ATCC 12078); ATCC12078, 96 h, Time 4 days): 0.06 µg/mL (≈ 0.113 µM)
- MIC (M. furfur (ATCC 12078); ATCC12078, 120 h, Time 5 days): 0.06 µg/mL (≈ 0.113 µM)
- MIC (M. furfur (ATCC 12078); ATCC12078, 144 h, Time 6 days): 0.06 µg/mL (≈ 0.113 µM)
- MIC (M. furfur (ATCC 12078); ATCC12078, 168 h, Time 7 days): 0.25 µg/mL (≈ 0.47 µM)
- minimum inhibition concentration (MIC) (M. furfur (ATCC 12078); Time 0.5 days): NGO
- minimum inhibition concentration (MIC) (M. furfur (ATCC 12078); Time 1 days): NGO
SMILES: CC(=O)N1CCN(c2ccc(OCC3COC(Cn4ccnc4)(c4ccc(Cl)cc4Cl)O3)cc2)CC1 (centres unmarked) [Ketoconazole]
- CLSI expected values (C. krusei (ATCC 6258) [1]; at 24 hours): 0.12-1
- CLSI expected values (C. krusei (ATCC 6258) [1]; at 48 hours): 0.25-1
- expected CLSI values ([2]; at 24 hours): 0.03-0.25
- expected CLSI values ([2]; at 48 hours): 0.06-0.5
